In patent US20040014676A1, “SRC kinase inhibitors useful for treating osteoporosis” (priority 2001, published 2004) one finds IC50 data, which are given here for 23 molecules.

A word on the IC50: it is the concentration that inhibits the measured activity by half.

The test deals with T1, Src kinase (Homo sapiens, UniProt P12931).
T1 construct: purchased Upstate Bioteolnology (sic; Upstate Biotechnology); later HMR stock 27597-019E1 #14-117
The experiment in a line: Phosphorylation assay of Src kinase inhibitors (radiometric, 96 well filter plate). It counts as biochemical. The settings on record: duplicates, tested in the range of 400-0.098 µM; 10 µM peptide substrate (FIYGAFKKKKNH2), 5 µM unlabeled ATP, room temperature 30 min; read-out: IC50. An outline of the steps:
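Radiometric filter-plate assay: Src kinase (1:100 dilution) was incubated with 10 μM peptide FIYGAFKKK-NH2, 5 μM unlabeled ATP and radiolabeled ATP for 30 min at room temperature. Reactions were stopped with 150 mM H3PO4, the peptide was captured on phosphocellulose and scintillation counted. Ki values were determined for some compounds.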

T1 sequence (P12931 whole entry): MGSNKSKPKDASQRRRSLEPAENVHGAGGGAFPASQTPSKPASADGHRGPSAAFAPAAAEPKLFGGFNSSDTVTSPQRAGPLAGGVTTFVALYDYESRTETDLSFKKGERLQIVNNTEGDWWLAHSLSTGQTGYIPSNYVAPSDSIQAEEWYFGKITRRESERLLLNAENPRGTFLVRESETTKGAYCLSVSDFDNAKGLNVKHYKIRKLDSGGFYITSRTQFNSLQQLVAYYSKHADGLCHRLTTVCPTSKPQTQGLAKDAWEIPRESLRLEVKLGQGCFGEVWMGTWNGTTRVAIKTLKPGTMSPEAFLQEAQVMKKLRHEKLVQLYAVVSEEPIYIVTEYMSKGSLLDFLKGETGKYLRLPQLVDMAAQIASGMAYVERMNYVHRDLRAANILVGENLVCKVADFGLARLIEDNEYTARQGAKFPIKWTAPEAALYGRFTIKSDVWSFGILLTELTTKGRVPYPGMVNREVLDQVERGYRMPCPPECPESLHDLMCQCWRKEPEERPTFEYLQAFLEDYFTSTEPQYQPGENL

In the case of `C[C@H](c1ccc(O)cc1)[C@H](N)C(=O)NCCCCOc1cc2ccccc2cc1C(=O)NCC(N)=O` [Example 78, 3-[4-[[[(1-OXO-2-AMINO-3(R)-METHYL- 3-(4-HYDROXY)PHENYL)]PROPYL]- AMINO]BUTOXY]-NAPHTHALENE-2- (N-ACETAMIDO)CARBOXAMIDE], the IC50 was 6 µM.

Take `NC(=O)CNC(=O)c1cc2ccccc2cc1OCCCCNC(=O)[C@@H](N)Cc1ccc(O)c([N+](=O)[O-])c1` [Example 54, 3-[4-[[[2(S)-AMINO-3-(3-NITRO-4- HYDROXY)PHENYL-1-OXO]PROPYL]- AMINO]BUTOXY]-NAPHTHALENE-2- (N-ACETAMIDO)CARBOXAMIDE]: the IC50 stood at 0.66 µM.

Take `NC(=O)CNC(=O)c1cc2ccccc2cc1OCCCCNC(=O)[C@@H](N)C1CCCCC1` [Example 50, 3-[[[4-(2(S)-AMINO-2-CYCLOHEXYL-1- OXO)ETHYL]AMINO]BUTOXY]- NAPHTHALENE-2-(N-ACETAMIDO)- CARBOXAMIDE]: the IC50 was 2 µM.

Regarding `CNC(=O)[C@@H](Cc1ccc(C(=O)OC)cc1)C(=O)NCCCCOc1cc2ccccc2cc1C(=O)NCC(N)=O` [Example 147, 3-[[4-[N-[1-OXO-2-(N-METHYLAMINO- CARBONYL)-3-[(4-(METHOXY- CARBONYL)PHENYL]]PROPYL]- AMINO]BUTOXY]-NAPHTHALENE-2- (N-ACETAMIDO)CARBOXAMIDE], the half-maximal inhibitory concentration (IC50) was 18 µM.

Take `NC(=O)CNC(=O)c1cc(-c2ccccc2)ccc1OCCCCNC(=O)C(N)Cc1ccc(O)cc1` (stereo in doubt) [Compound 144, (2S)-2-amino-N-(4-{2-[N-(carbamoylmethyl)carbamoyl]-4-phenylphenoxy}butyl)-3-(4-hydroxyphenyl)propanamide]: the IC50 was found to be 30 µM.

Turning to `NC(=O)CNC(=O)c1cc2ccccc2cc1OCCCCNC(=O)[C@@H](N)Cc1ccc(I)cc1` [Example 62, 3-[4-[[[1-OXO-2(S)-AMINO-3(4- IODOPHENYL)]PROPYL]AMINO]- BUTOXY]-NAPHTHALENE-2-(N- ACETAMIDO)CARBOXAMIDE], the IC50 came to 6.25 µM.

Turning to `NC(=O)CC(=O)Nc1cc2ccccc2cc1OCCCCNC(=O)[C@@H](N)Cc1ccc(O)cc1` [Compound 151, (2S)-2-amino-N-{4-[3-(2-carbamoylacetylamino)(2-naphthyloxy)]butyl}-3-(4-hydroxyphenyl)propanamide], the IC50 is 5 µM.

For the molecule `CNC(=O)C(Cc1ccc(C#N)cc1)C(=O)NCCCCOc1cc2ccccc2cc1C(=O)NCC(N)=O` (centres unmarked) [Example 124, N-(4-{3-[N-(carbamoylmethyl)carbamoyl](2-naphthyloxy)}butyl)-2RS-[(4-cyanophenyl)methyl]-N′-methylpropane-1,3-diamide], the IC50 was 6 µM.

As for `N[C@@H](Cc1ccc(O)cc1)C(=O)NCCCOc1cc2ccccc2cc1C(=O)NCC(=O)NCCCO` [Example 7, 3-[3-[[2(S)-AMINO-3-(4-HYDROXY- PHENYL)-1-OXOPROPYL]AMINO]- PROPOXY]-N-[2-[(3-HYDROXY- PROPYL)AMINO]-2-OXOETHYL]-2- NAPHTHALENECARBOXAMIDE], the IC50 was found to be 45 µM.

On to `C[C@@H](c1ccc(O)cc1)[C@H](N)C(=O)NCCCCOc1cc2ccccc2cc1C(=O)NCC(N)=O` [Example 79, 3-[4-[[[(1-OXO-2(S)-AMINO-3(R)- METHYL-3-(4-HYDROXYPHENYL)]- PROPYL]AMINO]BUTOXY]- NAPHTHALENE-2-(N-ACETAMIDO)- CARBOXAMIDE], for which the IC50 stood at 6 µM.

`NC(=O)CNC(=O)c1cc2ccccc2cc1OCCCCNC(=O)C(N)C1Cc2ccccc2C1` (centres unmarked) [Example 52, 3-[4-[N-[1-OXO-2-AMINO-2-(INDAN-2- YL)]ETHYL]-AMINOBUTOXY]- NAPHTHALENE-2-(N-ACETAMIDO)- CARBOXAMIDE]: the IC50 came out at 1.56 µM.

In the case of `NC(=O)CNC(=O)c1cc2ccccc2cc1OCCCCNC(=O)CNCc1cccc2ccccc12` [Example 71], the IC50 came out at 6 µM.

Take `NC(=O)CNC(=O)c1cc2ccccc2cc1OCCCCCCNC(=O)[C@@H](N)Cc1ccc(O)cc1` [Example 95, 3-[6-[[[1-OXO-2(S)-AMINO-3-(4- HYDROXYPHENYL)]PROPYL]AMINO]- HEXOXY]NAPHTHALENE-2-(N- ACETAMIDO)CARBOXAMIDE]: the IC50 turned out to be 7.1 µM.

In the case of `NC(=O)CNC(=O)c1cc2ccccc2cc1OCCCCNC(=O)[C@@H](N)CC1=CS(=O)(=O)c2ccccc21` [Compound 155, (2S)-2-amino-3-(1,1-dioxobenzo[b]thiophen-3-yl)-N-(4-{3-[N-(carbamoylmethyl)carbamoyl](2-naphthyloxy)}butyl)propanamide], the 50% inhibitory concentration (IC50) turned out to be 5 µM.

On to `NC(=O)CNC(=O)c1cc2ccccc2cc1OCCCCNC(=O)C1NCCC1c1ccc(O)cc1` [Example 21, 3-[N-[[[(3-(R)4-HYDROXYPHENYL)- TETRAHYDROPYRROL-2-YL]- CARBONYL]AMINO]BUTOXY]- NAPHTHALENE-2-[N-(2- AMIDOMETHYL)]CARBOXAMIDE], for which the IC50 worked out at 4.6 µM.

Regarding `NC(=O)CNC(=O)c1cc2ccccc2cc1OCCCCNC(=O)[C@@H](N)Cc1ccc([N+](=O)[O-])cc1` [Example 45, 3-[[4-[[2(S)-AMINO-3(4-NITROPHENYL)- 1-OXO]PROPYL]AMINO]BUTOXY]- NAPHTHALENE-2-(N-ACETAMIDO)- CARBOXAMIDE], the IC50 was found to be 1.47 µM.

For the molecule `NC(=O)CNC(=O)c1cc2ccccc2cc1OCCCCN1CCC[C@H](c2ccccc2)[C@H](N)C1=O` [Example 77, 3-[4-[(2-OXO-3(R)-AMINO-4(R)- PHENYL)HEXAMETHYLENEIMIN-1- YL]BUTOXY]-NAPHTHALENE-2-(N- ACETAMIDO)CARBOXAMIDE], the IC50 stood at 6 µM.

In the case of `NC(=O)CNC(=O)c1cc2ccccc2cc1OCCCCN1CCC[C@@H](c2ccccc2)[C@H](N)C1=O` [Example 76, 3-[4-[(2-OXO-3(R)-AMINO-4(S)- PHENYL)HEXAMETHYLENEIMIN-1- YL]BUTOXY]-NAPHTHALENE-2-(N- ACETAMIDO)CARBOXAMIDE], the IC50 came out at 6 µM.

As to `NC(=O)CNC(=O)c1cc2ccccc2cc1OCCCCN1CCNC(Cc2ccccc2)C1=O` (stereo in doubt) [Example 28, 3-[4-[(2-OXO-3(S)-BENZYL)-PIPERAZIN- 1-YL]BUTOXY]-NAPHTHALENE-2-(N- ACETAMIDO)CARBOXAMIDE], the IC50 was 27 µM.

Take `NC(=O)CNC(=O)c1cc2ccccc2cc1OCCCCNC(=O)[C@H](N)CSCc1ccccc1` [Example 63, 3-[4-[[[1-OXO-2(S)-AMINO- 3(BENZYLMERCAPTO)]PROPYL]- AMINO]BUTOXY]-NAPHTHALENE-2- (N-ACETAMIDO)CARBOXAMIDE]: the IC50 was found to be 2.23 µM.

As to `NC(=O)CNC(=O)c1cc2ccccc2cc1OCCCCNC(=O)[C@@H](N)CCc1ccccc1` [Example 36, 3-[[4-[(2(S)-AMINO-3-(BENZYL-1- OXO)PROPYL]AMINO]BUTOXY]- NAPHTHALENE-2-(N- ACETAMIDO)CARBOXAMIDE], the IC50 came to 7.9 µM.

In the case of `NCC(=O)N[C@@H](Cc1ccc(O)cc1)C(=O)NCCCCOc1cc2ccccc2cc1C(=O)NCC(N)=O` [Example 74, 3-[4-[[[(1-OXO-2-[(N-AMINOMETHYL- CARBONYL)(S)AMINO]3-(4-HYDROXY- PHENYL)]PROPYL]AMINO]BUTOXY]- NAPHTHALENE-2-(N-ACETAMIDO)- CARBOXAMIDE], the IC50 was 25 µM.

With `NC(=O)CNC(=O)c1cc2ccccc2cc1OCCCCNC(=O)[C@@H](N)Cc1ccc(F)cc1` [Example 41, 3-[[4-[[2(S)-AMINO-3-(4-FLUORO- PHENYL)-1-OXO]PROPYL]AMINO]- BUTOXY]-NAPHTHALENE-2- (N-ACETAMIDO)CARBOXAMIDE], the half-inhibitory concentration (IC50) is 0.31 µM.
